Test systems include T47D; SNB-75; HOP-92; RXF 393; A549; ACHN; SN12C; HCT-116; SW-620; KM12; NCI/ADR-RES; DU-145; SK-MEL-28; EKVX; K562; SR; MCF7; U-251; SF-268; MDA-MB-231.
Common to all, as to experiment: inhibition of tumour cell growth, NCI panel, 48 h

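Growth conditions: 96-well plates. Treatment: test compound, 48 hours, 5 concentrations. Analysis: linear interpolation between bracketing concentrations; unreached endpoints set to highest concentration. GI50 is the concentration that inhibits growth by half.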 The source made the active and inactive calls. Rule as the data show it: active = GI50 up to about 1.1 µM and inactive = higher.

In the case of `COC1C(CO)OC(n2c3c(Cl)cccc3c3c4c(c5c6cccc(Cl)c6[nH]c5c32)C(=O)NC4=O)C(O)C1O` (stereo not given), the GI50 was 0.154 µM (active) with T47D; 0.234 µM (active) in the test with SNB-75; 0.215 µM (active) in the test with HOP-92; 0.225 µM (active) in the test on RXF 393; 0.298 µM (active) in the test with A549; 0.113 µM (active) in the test with ACHN. Also, the GI50 in the test with SN12C is 0.104 µM (active); in the test with HCT-116, 0.097 µM (active); in the test on SW-620, 0.0849 µM (active); with KM12, 0.614 µM (active); with NCI/ADR-RES, 0.444 µM (active); in the test with DU-145, 0.202 µM (active). Further, the GI50 with SK-MEL-28 was 0.337 µM (active); in the test on EKVX, 0.463 µM (active); in the test with K562 it was 0.142 µM (active); with SR, 0.0282 µM (active); in the test with MCF7 it was 0.1 µM (active); in the test on U-251, 0.173 µM (active). Moreover, the GI50 with SF-268 was 0.149 µM (active); in the test with MDA-MB-231, 0.276 µM (active).

As to `C=C(C)CNC(=S)N(N)c1ccc2ccccc2c1`, the GI50 in the test on T47D was 24.2 µM (inactive); in the test on SNB-75 it was > 100 µM (inactive); in the test with HOP-92 it was > 100 µM (inactive); in the test with RXF 393 it was > 100 µM (inactive); with A549 it was > 100 µM (inactive); with ACHN it was 34.5 µM (inactive). Further, the GI50 in the test on SN12C is > 100 µM (inactive); in the test with HCT-116, > 100 µM (inactive); with SW-620, > 100 µM (inactive); in the test with KM12 it was 13.6 µM (inactive); with NCI/ADR-RES, 78 µM (inactive); in the test with DU-145 it was > 100 µM (inactive). Further, the GI50 is > 100 µM (inactive) with SK-MEL-28; 24.7 µM (inactive) in the test on EKVX; 40.4 µM (inactive) in the test with K562; > 100 µM (inactive) with SR; 26.5 µM (inactive) with MCF7; > 100 µM (inactive) in the test on U-251. For the same molecule, the GI50 in the test with SF-268 is 78 µM (inactive); with MDA-MB-231, > 100 µM (inactive).

Take `CC(=O)Nc1ccc2c(c1)C(=O)c1cccc(F)c1-2`: the GI50 with T47D is 24.9 µM (inactive); with SNB-75, 56.2 µM (inactive); in the test with HOP-92, 65.5 µM (inactive); with RXF 393, 23.6 µM (inactive); in the test on A549, 49.2 µM (inactive); with ACHN, 36.6 µM (inactive). Also, the GI50 in the test with SN12C was 42.2 µM (inactive); in the test with HCT-116, 24.2 µM (inactive); in the test on SW-620, 57.3 µM (inactive); in the test on KM12, 0.401 µM (active); with NCI/ADR-RES, 48.2 µM (inactive); with DU-145, 0.113 µM (active). The GI50 with SK-MEL-28 is > 100 µM (inactive); in the test with EKVX, > 100 µM (inactive); with K562, 50.2 µM (inactive); in the test on SR, 19.9 µM (inactive); in the test with MCF7 it was 4.33 µM (inactive); in the test on U-251 it was 38.6 µM (inactive). Moreover, the GI50 with SF-268 is 48.1 µM (inactive); with MDA-MB-231, 30.4 µM (inactive).

With `O=C1O/C(=C(/Br)c2ccc(Cl)c(Cl)c2)c2ccccc21`, the GI50 in the test with T47D, in the test on SNB-75, with HOP-92, with RXF 393, with A549 and in the test on ACHN was > 10 µM (inactive) in each case. Moreover, the GI50 with SN12C, in the test on HCT-116, in the test on SW-620, with KM12, with NCI/ADR-RES and with DU-145 was > 10 µM (inactive) throughout. Moreover, the GI50 with SK-MEL-28 is > 10 µM (inactive); with EKVX, > 10 µM (inactive); in the test on K562, > 10 µM (inactive); in the test on SR, > 10 µM (inactive); in the test on MCF7, 7.67 µM (inactive); in the test on U-251, > 10 µM (inactive). In addition, the GI50 in the test with SF-268 and in the test with MDA-MB-231 was > 10 µM (inactive) in each case.

As for `CC(C)Sc1nncc(/C(N)=N/O)n1`, the GI50 was > 100 µM (inactive) in the test with T47D; > 100 µM (inactive) with SNB-75; 92 µM (inactive) with HOP-92; > 100 µM (inactive) with RXF 393; > 100 µM (inactive) in the test with A549; > 100 µM (inactive) in the test on ACHN. The GI50 in the test on SN12C is > 100 µM (inactive); in the test on HCT-116 it was > 100 µM (inactive); in the test with SW-620, > 100 µM (inactive); in the test with KM12 it was 88.5 µM (inactive); in the test with NCI/ADR-RES, > 100 µM (inactive); with DU-145, > 100 µM (inactive). Besides, the GI50 with SK-MEL-28, in the test on EKVX, with K562, in the test with SR, in the test with MCF7 and with U-251 was > 100 µM (inactive) each time. In addition, the GI50 in the test with SF-268 and in the test with MDA-MB-231 was > 100 µM (inactive) in each case.

Regarding `O=C(/C=C/c1ccc(O)c(O)c1)c1ccc(O)cc1O` [BUTEIN], the GI50 with T47D was 14.4 µM (inactive); in the test on SNB-75, 11.1 µM (inactive); with HOP-92, 15.7 µM (inactive); in the test with RXF 393 it was 12.2 µM (inactive); in the test on A549, 25 µM (inactive); with ACHN, 18 µM (inactive). Besides, the GI50 in the test with SN12C was 14.5 µM (inactive); with HCT-116, 13 µM (inactive); with SW-620 it was 8.53 µM (inactive); in the test on KM12, 10.2 µM (inactive); with NCI/ADR-RES, 17.4 µM (inactive); with DU-145, 9.1 µM (inactive). Besides, the GI50 is 14.5 µM (inactive) in the test on SK-MEL-28; 26.9 µM (inactive) in the test with EKVX; 4.27 µM (inactive) in the test on K562; 7.1 µM (inactive) in the test with SR; 3.98 µM (inactive) in the test with MCF7; 9.25 µM (inactive) in the test on U-251. Besides, the GI50 is 14.8 µM (inactive) with SF-268 and 15.8 µM (inactive) in the test with MDA-MB-231.

Consider `COc1cc(/C=C2\N=C(c3ccccc3)N(c3nc4cc(C)c(C)cc4s3)C2=O)ccc1O`, for which the GI50 in the test on T47D is 44.1 µM (inactive); in the test with SNB-75, 24.9 µM (inactive); in the test on HOP-92, 21.9 µM (inactive); in the test with RXF 393, 20.4 µM (inactive); with A549, 40.7 µM (inactive); with ACHN, 28.3 µM (inactive). The GI50 with SN12C is 25.8 µM (inactive); in the test on HCT-116 it was 19.3 µM (inactive); in the test on SW-620 it was 35.5 µM (inactive); in the test on KM12, 17.8 µM (inactive); in the test on NCI/ADR-RES, 42.3 µM (inactive); in the test on DU-145, 61.7 µM (inactive). Moreover, the GI50 with SK-MEL-28 was 71.3 µM (inactive); in the test with EKVX it was 23.3 µM (inactive); with K562 it was 35.3 µM (inactive); with SR it was 19.9 µM (inactive); in the test on MCF7 it was 11.2 µM (inactive); in the test on U-251 it was 30.8 µM (inactive). Moreover, the values for the GI50 with SF-268 and with MDA-MB-231 were 44.8 µM (inactive) and 66.1 µM (inactive), respectively.

For the molecule `CCOc1ccc(N/C(Cl)=C(Cl)\C(=C(\Nc2ccc(OCC)cc2)n2nnc3ccccc32)[N+](=O)[O-])cc1`, the GI50 with T47D was 4.47 µM (inactive); with SNB-75 it was 18.3 µM (inactive); in the test with HOP-92, 2.25 µM (inactive); in the test with RXF 393 it was 2.28 µM (inactive); with A549 it was 23.3 µM (inactive); in the test with ACHN, 4.03 µM (inactive). Further, the GI50 in the test on SN12C was 7.94 µM (inactive); in the test on HCT-116, 2.15 µM (inactive); in the test on SW-620, 2.32 µM (inactive); with KM12, 19.1 µM (inactive); with NCI/ADR-RES, 15.2 µM (inactive); in the test on DU-145 it was 14.5 µM (inactive). Moreover, the GI50 is 7.83 µM (inactive) in the test on SK-MEL-28; 12.2 µM (inactive) in the test with EKVX; 2.36 µM (inactive) in the test on K562; 1.45 µM (inactive) in the test on SR; 5.89 µM (inactive) in the test on MCF7; 6.78 µM (inactive) with U-251. Also, the values for the GI50 in the test with SF-268 and in the test with MDA-MB-231 were 6.98 µM (inactive) and 6.08 µM (inactive), respectively.

Regarding `Cc1cc(NS(=O)(=O)c2ccc(NC(=O)c3cccc4c(NNc5ccc(S(=O)(=O)N=C(N)N)cc5)c5ccccc5nc34)cc2)no1`, the GI50 with T47D was 34.6 µM (inactive); in the test with SNB-75 it was 28.2 µM (inactive); in the test on HOP-92, 17.3 µM (inactive); in the test with RXF 393, 46.8 µM (inactive); in the test on A549, > 100 µM (inactive); in the test with ACHN, 50.4 µM (inactive). The GI50 in the test with SN12C was 70.3 µM (inactive); in the test on HCT-116 it was 40.2 µM (inactive); with SW-620, 60 µM (inactive); in the test with KM12, 36 µM (inactive); in the test with NCI/ADR-RES, > 100 µM (inactive); with DU-145 it was 51.5 µM (inactive). Moreover, the GI50 was 33.9 µM (inactive) with SK-MEL-28; 19.7 µM (inactive) with EKVX; 36.8 µM (inactive) in the test with K562; 35.8 µM (inactive) in the test with SR; 43.7 µM (inactive) with MCF7; 22.6 µM (inactive) in the test with U-251. Also, the GI50 was 39 µM (inactive) with SF-268 and 44.2 µM (inactive) with MDA-MB-231.

Consider `CC(C)NC(=O)OCc1c(COC(=O)NC(C)C)c(-c2ccc(Cl)c(Cl)c2)n2c1CCC2`, for which the GI50 was 50.5 µM (inactive) in the test on T47D; 39.4 µM (inactive) in the test with SNB-75; 29.4 µM (inactive) with HOP-92; 31.3 µM (inactive) in the test on RXF 393; 21.1 µM (inactive) in the test on A549; 18.7 µM (inactive) in the test with ACHN. Also, the GI50 in the test with SN12C was 49.4 µM (inactive); in the test on HCT-116, 51.8 µM (inactive); in the test with SW-620 it was 21 µM (inactive); in the test on KM12, 62.5 µM (inactive); in the test on NCI/ADR-RES it was > 89.7 µM (inactive); with DU-145, > 100 µM (inactive). The GI50 is 65 µM (inactive) in the test with SK-MEL-28; 57.1 µM (inactive) with EKVX; 46.1 µM (inactive) with K562; 6.37 µM (inactive) in the test on SR; > 100 µM (inactive) in the test on MCF7; 51.3 µM (inactive) in the test on U-251. Besides, the figures for the GI50 in the test with SF-268 and with MDA-MB-231 were 43.5 µM (inactive) and 84.7 µM (inactive), respectively.

Values taken from ChEMBL document CHEMBL1201862, “PubChem BioAssay data set” (2004).
